The test system of this experiment is HL-60 (TB). The settings on record: for TGI: HL-60 (TB), leukemia, mutant p53, 48 h; for CC50: read-out: LC50.

By TGI is commonly meant the concentration giving total growth inhibition. Turning to `COc1cc2c(c(OC)c1OC)-c1ccc(NNC(=S)N(Cc3cccc(C[N+](Cc4cccc(CNC56CC7CC(CC(C7)C5)C6)c4)(Cc4cccc(CNC56CC7CC(CC(C7)C5)C6)c4)Cc4cccc(CN(C(=S)NNc5ccc6c(cc5=O)C(NC(C)=O)CCc5cc(OC)c(OC)c(OC)c5-6)C56CC7CC(CC(C7)C5)C6)c4)c3)C34CC5CC(CC(C5)C3)C4)c(=O)cc1C(NC(C)=O)CC2` [Compound 3, [(bis{3-[(tricyclo[3.3.1.1^3,7]decan-1-ylamino)methyl]benzyl}ammonio)bis(methanediylbenzene-3,1-diylmethanediyl)]di-2-[(aS,7S)-7-(acetylamino)-1,2,3-trimethoxy-9-oxo-5,6,7,9-tetrahydrobenzo[a]heptalen-10-yl]-N-(tricyclo[3.3.1.1^3,7]decan-1-yl)hydrazinecarbothioamide chloride pentahydrate], the TGI is 1.03 µM.

Usually GI50 stands for the concentration at which growth is held to half of that of the control. Lower therefore signals more potent growth inhibition. For the molecule `COc1cc2c(c(OC)c1OC)-c1ccc(NNC(N)=S)c(=O)cc1C(NC(C)=O)CC2` [Compound 2, N-[(aS,7S)-10-(2-carbamothioylhydrazinyl)-1,2,3-trimethoxy-9-oxo-5,6,7,9-tetrahydrobenzo[a]heptalen-7-yl]acetamide monohydrate × ⅔ (ethyl acetate)], the TGI is on record as 1.26 µM. Besides, under “Homo sapiens, HL-60, 48 h”, halving of growth (GI50) required 0.113 µM and the CC50 was over 100 µM.

`c1cc(CNC23CC4CC(CC(C4)C2)C3)cc(C[N+](Cc2cccc(CNC34CC5CC(CC(C5)C3)C4)c2)(Cc2cccc(CNC34CC5CC(CC(C5)C3)C4)c2)Cc2cccc(CNC34CC5CC(CC(C5)C3)C4)c2)c1` (centres unmarked) [Compound 1, tetrakis{3-[(tricyclo[3.3.1.1^3,7]decan-1-ammonio)methyl]benzyl}ammonium pentachloride]: the CC50 (Homo sapiens, HL-60, 48 h) was over 50 µM.
